Assay results taken from ChEMBL document CHEMBL5137032, “Design, synthesis of DNA-interactive 4-thiazolidinone-based indolo-/pyrroloazepinone conjugates as potential cytotoxic and topoisomerase I inhibitors” (Eur J Med Chem, 2022).
Activity calls are given as the source filed them. The calls are words filed in the database; no cut-off is given here.

How the values were obtained:
A549 [1] = experiment: Cytotoxicity against human A549 cells assessed as cell growth inhibition incubated for 48 hrs by MTT assay; format: functional, cell-based; settings: A549, 48 h
HCT-116 = experiment: Cytotoxicity against human HCT-116 cells assessed as cell growth inhibition incubated for 48 hrs by MTT assay; format: functional, cell-based; settings: HCT-116, 48 h
SK-MEL-28 [2] = experiment: Cytotoxicity against human SK-MEL-28 cells assessed as cell growth inhibition incubated for 48 hrs by MTT assay; format: functional, cell-based; settings: SK-MEL-28, 48 h
HT-29 = experiment: Cytotoxicity against human HT-29 cells assessed as cell growth inhibition incubated for 48 hrs by MTT assay; format: functional, cell-based; settings: HT-29, 48 h
MCF7 = experiment: Cytotoxicity against human MCF7 cells assessed as cell growth inhibition incubated for 48 hrs by MTT assay; format: functional, cell-based; settings: MCF7, 48 h
[3] = Cytotoxicity against rat NRK cells assessed as cell growth inhibition incubated for 48 hrs by MTT assay; format: toxicity, cell-based
A549 [4] = experiment: Induction of apoptosis in human A549 cells assessed as changes in cell morphology at 0.625 to 2.5 uM incubated for 48 hrs by phase contrast microscopy; format: functional, cell-based; settings: dose 0.625-2.5 µM
A549 [5] = experiment: Induction of apoptosis in human A549 cells assessed as cell shrinkage at 0.625 to 2.5 uM incubated for 48 hrs by phase contrast microscopy; format: functional, cell-based; settings: dose 0.625-2.5 µM, DDE = dose-dependent effect
A549 [6] = experiment: Induction of apoptosis in human A549 cells assessed as nuclear fragmentation at 0.625 to 2.5 uM incubated for 48 hrs by DAPI staining based fluorescence microscopic analysis; format: functional, cell-based; settings: dose 0.625-2.5 µM
A549 [7] = experiment: Induction of apoptosis in human A549 cells assessed as cell membrane disruption at 0.625 to 2.5 uM incubated for 48 hrs by phase contrast microscopy; format: functional, cell-based; settings: dose 0.625-2.5 µM, DDE = dose-dependent effect
A549 [8] = experiment: Induction of apoptosis in human A549 cells assessed as reduction on viable cells at 0.625 to 2.5 uM incubated for 48 hrs by phase contrast microscopy; format: functional, cell-based; settings: dose 0.625-2.5 µM, DDE = dose-dependent effect
A549 [9] = experiment: Induction of apoptosis in human A549 cells assessed as changes in nuclear morphology at 0.625 to 2.5 uM incubated for 48 hrs by DAPI staining based fluorescence microscopic analysis; format: functional, cell-based; settings: dose 0.625-2.5 µM
A549 [10] = experiment: Induction of apoptosis in human A549 cells assessed as chromatin condensation at 0.625 to 2.5 uM incubated for 48 hrs by DAPI staining based fluorescence microscopic analysis; format: functional, cell-based; settings: dose 0.625-2.5 µM
A549 [11] = experiment: Induction of apoptosis in human A549 cells assessed as cell shrinkage at 0.625 to 2.5 uM incubated for 48 hrs by AO/EB staining based fluorescence microscopy; format: functional; settings: dose 0.625-2.5 µM, DDE = dose-dependent effect
A549 [12] = experiment: Induction of apoptosis in human A549 cells assessed as apoptotic body fragmentation at 0.625 to 2.5 uM incubated for 48 hrs by AO/EB staining based fluorescence microscopy; format: functional, cell-based; settings: dose 0.625-2.5 µM, DDE = dose-dependent effect
A549 [13] = experiment: Induction of apoptosis in human A549 cells assessed as membrane blebbing at 0.625 to 2.5 uM incubated for 48 hrs by AO/EB staining based fluorescence microscopy; format: functional, cell-based; settings: dose 0.625-2.5 µM, DDE = dose-dependent effect
A549 [14] = experiment: Induction of apoptosis in human A549 cells assessed as chromatin condensation at 0.625 to 2.5 uM incubated for 48 hrs by AO/EB staining based fluorescence microscopy; format: functional, cell-based; settings: dose 0.625-2.5 µM, DDE = dose-dependent effect
A549 [15] = experiment: Induction of intracellular ROS generation in human A549 cells at 0.625 to 2.5 uM incubated for 48 hrs by […] fluorescence microscopic analysis; format: functional, cell-based; settings: dose 0.625-2.5 µM, DDE = dose-dependent effect
A549 [16] = experiment: Anti-migration activity in human A549 cells assessed as distance travelled at 0.625 uM by wound healing assay based phase contrast microscopy; format: functional
A549 [17] = experiment: Anti-migration activity in human A549 cells assessed as distance travelled at 1.25 uM by wound healing assay based phase contrast microscopy; format: functional
A549 [18] = experiment: Anti-migration activity in human A549 cells assessed as distance travelled at 2.5 uM by wound healing assay based phase contrast microscopy; format: functional
A549 [19] = experiment: Anti-migration activity in human A549 cells assessed as distance travelled at 0.625 uM incubated for 48 hrs by wound healing assay based phase contrast microscopy; format: functional
A549 [20] = experiment: Anti-migration activity in human A549 cells assessed as distance travelled at 1.25 uM incubated for 48 hrs by wound healing assay based phase contrast microscopy; format: functional
A549 [21] = experiment: Anti-migration activity in human A549 cells assessed as distance travelled at 2.5 uM incubated for 48 hrs by wound healing assay based phase contrast microscopy; format: functional
A549 [22] = experiment: Inhibition of cell migration in human A549 cells at 0.625 to 2.5 uM incubated for 48 hrs by wound healing assay based phase contrast microscopy; format: functional; settings: dose 0.625-2.5 µM, DDE = dose-dependent effect
A549 [23] = experiment: Inhibition of colony formation in human A549 cells assessed as decrease in colonies at 0.625 to 2.5 uM incubated for 7 days by crystal violet staining based assay; format: functional, cell-based; settings: dose 0.625-2.5 µM, time 7.0 day, DDE = dose-dependent effect
A549 [24] = experiment: Induction of apoptosis in human A549 cells assessed as necrotic cells at 0.625 to 2.5 uM incubated for 48 hrs by Annexin V-FITC/propidium iodide staining based flow cytometric analysis; format: functional; settings: dose 0.625-2.5 µM
A549 [25] = experiment: Induction of apoptosis in human A549 cells assessed as necrotic cells at 0.625 uM incubated for 48 hrs by Annexin V-FITC/propidium iodide staining based flow cytometric analysis; format: functional
A549 [26] = experiment: Induction of apoptosis in human A549 cells assessed as necrotic cells at 2.5 uM incubated for 48 hrs by Annexin V-FITC/propidium iodide staining based flow cytometric analysis; format: functional
A549 [27] = experiment: Induction of apoptosis in human A549 cells assessed as late apoptotic cells at 0.625 to 1.25 uM incubated for 48 hrs by Annexin V-FITC/propidium iodide staining based flow cytometric analysis; format: functional, cell-based; settings: dose 0.625-1.25 µM
A549 [28] = experiment: Induction of apoptosis in human A549 cells assessed as late apoptotic cells at 2.5 uM incubated for 48 hrs by Annexin V-FITC/propidium iodide staining based flow cytometric analysis; format: functional
Calf thymus DNA [29] = experiment: Binding affinity to calf thymus DNA assessed as hyperchromicity at 10 to 20 uM by UV-Vis spectroscopic analysis; format: nucleic-acid assay; settings: Bos taurus; dose 10-20 µM
Calf thymus DNA [30] = experiment: Binding affinity to calf thymus DNA assessed as hyperchromicity at 10 uM by circular dichroism spectroscopy; format: nucleic-acid assay; settings: Bos taurus
Calf thymus DNA [31] = experiment: Binding affinity to calf thymus DNA assessed as increase in viscosity at 15 uM by ethidium bromide-Hoechst 33342 staining based analysis; format: nucleic-acid assay; settings: Bos taurus
[32] = target: T1, DNA topoisomerase 1 (Homo sapiens) (UniProt P11387); experiment: Inhibition of DNA topoisomerase 1 (unknown origin) assessed as reduction in pBR322 DNA relaxation at 10 uM incubated for 30 mins measured by agarose gel electrophoresis method relative to control
T1 sequence (whole entry): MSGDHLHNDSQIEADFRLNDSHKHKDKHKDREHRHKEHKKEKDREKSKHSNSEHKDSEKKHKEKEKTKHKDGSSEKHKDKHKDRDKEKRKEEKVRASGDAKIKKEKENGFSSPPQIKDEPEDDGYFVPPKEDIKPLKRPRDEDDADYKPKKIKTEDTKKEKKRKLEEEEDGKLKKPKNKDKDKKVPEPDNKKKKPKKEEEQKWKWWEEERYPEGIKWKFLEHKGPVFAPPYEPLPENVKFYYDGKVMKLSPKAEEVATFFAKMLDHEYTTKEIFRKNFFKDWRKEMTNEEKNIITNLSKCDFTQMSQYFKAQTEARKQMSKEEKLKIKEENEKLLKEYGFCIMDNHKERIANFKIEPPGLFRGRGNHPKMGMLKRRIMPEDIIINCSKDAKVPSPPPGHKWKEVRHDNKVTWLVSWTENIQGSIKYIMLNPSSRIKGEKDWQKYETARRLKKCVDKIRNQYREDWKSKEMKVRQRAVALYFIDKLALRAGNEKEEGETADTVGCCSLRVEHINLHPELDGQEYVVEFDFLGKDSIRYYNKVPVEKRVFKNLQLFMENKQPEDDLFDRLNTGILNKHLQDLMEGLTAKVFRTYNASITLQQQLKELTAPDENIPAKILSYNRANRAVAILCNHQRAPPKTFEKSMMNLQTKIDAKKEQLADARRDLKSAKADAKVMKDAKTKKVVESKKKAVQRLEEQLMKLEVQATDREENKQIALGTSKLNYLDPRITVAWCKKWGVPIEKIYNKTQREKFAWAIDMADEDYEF

DNA topoisomerase 1 = target: T2, DNA topoisomerase 1 (Homo sapiens, UniProt P11387); experiment: Inhibition of human DNA topoisomerase 1 assessed as reduction in pBR322 DNA relaxation incubated for 1 hrs measured by agarose gel electrophoresis method
T2 sequence (P11387 whole entry): T1 sequence (whole entry)

[33] = target: DNA topoisomerase 2-alpha (Homo sapiens) (UniProt P11388); experiment: Inhibition of DNA topoisomerase 2 (unknown origin) assessed as reduction in decatenation using kDNA as substrate incubated for 30 mins measured by agarose gel electrophoresis method
A549 [34] = experiment: Induction of intracellular ROS generation in human A549 cells at […] incubated for 48 hrs by […] fluorescence microscopic analysis; format: functional, cell-based; settings: dose 0.47 µM
SK-MEL-28 [35] = experiment: Induction of intracellular ROS generation in human SK-MEL-28 cells at 2.26 uM incubated for 48 hrs by […] fluorescence microscopic analysis; format: functional, cell-based

Sequence of DNA topoisomerase 2-alpha (Homo sapiens) (P11388 whole entry): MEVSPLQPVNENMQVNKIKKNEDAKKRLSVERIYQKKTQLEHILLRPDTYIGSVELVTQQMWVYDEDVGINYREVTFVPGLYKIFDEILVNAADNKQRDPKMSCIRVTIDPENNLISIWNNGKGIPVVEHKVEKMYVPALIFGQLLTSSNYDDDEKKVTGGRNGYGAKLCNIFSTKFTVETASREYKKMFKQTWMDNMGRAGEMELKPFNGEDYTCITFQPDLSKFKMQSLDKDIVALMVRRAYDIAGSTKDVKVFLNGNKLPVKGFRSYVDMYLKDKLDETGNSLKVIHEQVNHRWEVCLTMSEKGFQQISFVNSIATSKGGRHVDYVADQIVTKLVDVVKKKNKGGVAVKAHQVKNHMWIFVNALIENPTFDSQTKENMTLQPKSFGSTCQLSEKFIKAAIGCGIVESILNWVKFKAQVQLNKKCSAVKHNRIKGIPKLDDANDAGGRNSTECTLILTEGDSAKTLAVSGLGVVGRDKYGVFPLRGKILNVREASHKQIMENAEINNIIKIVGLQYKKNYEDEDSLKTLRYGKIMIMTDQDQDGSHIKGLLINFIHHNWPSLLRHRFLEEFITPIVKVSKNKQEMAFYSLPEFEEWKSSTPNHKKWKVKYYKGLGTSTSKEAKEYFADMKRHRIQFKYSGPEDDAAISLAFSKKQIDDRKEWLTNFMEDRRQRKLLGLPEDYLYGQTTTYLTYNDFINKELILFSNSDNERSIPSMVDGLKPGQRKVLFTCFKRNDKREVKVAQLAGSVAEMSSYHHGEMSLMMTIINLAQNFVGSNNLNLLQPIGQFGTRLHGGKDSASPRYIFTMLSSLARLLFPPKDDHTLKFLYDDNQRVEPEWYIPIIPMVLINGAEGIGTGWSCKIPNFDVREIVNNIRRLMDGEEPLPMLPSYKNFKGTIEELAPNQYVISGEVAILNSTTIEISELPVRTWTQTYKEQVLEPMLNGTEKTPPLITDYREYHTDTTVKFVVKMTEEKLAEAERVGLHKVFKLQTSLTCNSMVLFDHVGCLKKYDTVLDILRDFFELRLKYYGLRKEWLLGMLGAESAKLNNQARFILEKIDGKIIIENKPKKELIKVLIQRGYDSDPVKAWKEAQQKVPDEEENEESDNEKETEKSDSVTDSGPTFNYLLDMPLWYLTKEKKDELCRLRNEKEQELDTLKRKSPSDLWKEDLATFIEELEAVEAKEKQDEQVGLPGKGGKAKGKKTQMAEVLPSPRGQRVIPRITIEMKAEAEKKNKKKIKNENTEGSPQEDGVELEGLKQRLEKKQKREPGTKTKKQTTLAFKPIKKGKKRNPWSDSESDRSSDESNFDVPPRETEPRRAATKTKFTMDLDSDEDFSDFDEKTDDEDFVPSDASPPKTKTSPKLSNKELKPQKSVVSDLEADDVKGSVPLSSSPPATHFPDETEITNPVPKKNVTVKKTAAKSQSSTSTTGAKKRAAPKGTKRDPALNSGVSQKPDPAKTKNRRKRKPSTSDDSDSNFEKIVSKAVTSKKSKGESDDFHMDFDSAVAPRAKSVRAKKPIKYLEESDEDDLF

Cc1ccc(C/N=C2\NC(=O)/C(=C3\CCNC(=O)c4[nH]c5ccccc5c43)S2)cc1
IC50 (A549 [1]): 1.24 µM | IC50 (HCT-116): 6.55 µM | IC50 (SK-MEL-28 [2]): 3.02 µM | IC50 (HT-29): 10.9 µM | IC50 (MCF7): 8.03 µM | IC50 at 48 h [3]: 53.2 µM | Activity (A549 [4]): Active | Activity (A549 [5]): Dde | Activity (A549 [6]): Active | Activity (A549 [7]): Dde | Activity (A549 [8]): Dde | Activity (A549 [9]): Active | Activity (A549 [10]): Active | Activity (A549 [11]): Dde | Activity (A549 [12]): Dde | Activity (A549 [13]): Dde | Activity (A549 [14]): Dde | Activity (A549 [15]): Dde | Activity (A549 [16]): 298.42 um | Activity (A549 [17]): 391.93 um | Activity (A549 [18]): 363.56 um | Activity (A549 [19]): 259.59 um | Activity (A549 [20]): 293.25 um | Activity (A549 [21]): 445.52 um | inhibition (A549 [22]): Dde | inhibition (A549 [23]): Dde | Activity (A549 [24]): 2.97% | Activity (A549 [25]): 4.8% | Activity (A549 [26]): 5.96% | Activity (A549 [27]): Active | Activity (A549 [28]): 3.09% | Activity (Calf thymus DNA [29]): Active | Activity (Calf thymus DNA [30]): Active | Activity (Calf thymus DNA [31]): Active | inhibition [32]: 28% | IC50 (DNA topoisomerase 1): 48 µM | inhibition [33]: Active

CC[C@@]1(O)C(=O)OCc2c1cc1n(c2=O)Cc2cc3ccccc3nc2-1 [CAMPTOTHECIN]
IC50 (A549 [1]): 0.47 µM | IC50 (SK-MEL-28 [2]): 2.26 µM | Activity (A549 [34]): Active | Activity (SK-MEL-28 [35]): Active

O=C1N/C(=N\Cc2ccccc2)S/C1=C1/CCNC(=O)c2[nH]c3ccccc3c21
IC50 (A549 [1]): 48.2 µM | IC50 (HCT-116): 34.4 µM | IC50 (SK-MEL-28 [2]): 29.8 µM | IC50 (HT-29): 31.8 µM | IC50 (MCF7): 31 µM

O=C1N/C(=N\Cc2cccc(Cl)c2)S/C1=C1/CCNC(=O)c2[nH]c3ccccc3c21
IC50 (A549 [1]): 33.7 µM | IC50 (HCT-116): 25.2 µM | IC50 (SK-MEL-28 [2]): 23.8 µM | IC50 (HT-29): > 50 µM | IC50 (MCF7): 28.1 µM

COc1ccc(C/N=C2\NC(=O)/C(=C3\CCNC(=O)c4[nH]c5ccccc5c43)S2)cc1OC
IC50 (A549 [1]): 30 µM | IC50 (HCT-116): 16.4 µM | IC50 (SK-MEL-28 [2]): 25.1 µM | IC50 (HT-29): > 50 µM | IC50 (MCF7): 23.7 µM

CC(C)(C)c1ccc(C/N=C2\NC(=O)/C(=C3\CCNC(=O)c4[nH]c5ccccc5c43)S2)cc1
IC50 (A549 [1]): 19.3 µM | IC50 (HCT-116): 15.9 µM | IC50 (SK-MEL-28 [2]): 8.97 µM | IC50 (HT-29): 13.6 µM | IC50 (MCF7): 9.01 µM

O=C1N/C(=N\Cc2ccc(F)cc2)S/C1=C1/CCNC(=O)c2[nH]c3ccccc3c21
IC50 (A549 [1]): 36.5 µM | IC50 (HCT-116): 30.8 µM | IC50 (SK-MEL-28 [2]): > 50 µM | IC50 (HT-29): 38 µM | IC50 (MCF7): 40.3 µM
